Source: article PMC8851638 (ACS Omega, 2022)
≈ marks a conversion by molar mass, not a printed value. Where “and” joins values, the source holds several entries; their conditions need not be identical. Equal entries are not always repeated.

Key:
S. aureus (MDR00231) [1] = assay: Agar well-diffusion antimicrobial sensitivity assay; format: cell-based, Staphylococcus aureus; conditions: for Inhibition Zone (IZ): S. aureus, 100 mg/mL in DMSO, 50 μL per well, ± SD
[2] = tested on: S. epidermidis (MDR00223); assay: as above; format: cell-based, Staphylococcus epidermidis; conditions: for Inhibition Zone (IZ): S. epidermidis, 100 mg/mL in DMSO, 50 μL per well, ± SD
B. subtilis (MDR00423) [3] = assay: as above; format: cell-based; conditions: 100 mg/mL in DMSO, 50 μL per well, ± SD
E. coli (MDR00501) [4] = assay: as above; format: cell-based; conditions: for Inhibition Zone (IZ): E. coli, 100 mg/mL in DMSO, 50 μL per well, ± SD
A. baumannii (MDR00521) [5] = assay: as above; format: cell-based; conditions: 100 mg/mL in DMSO, 50 μL per well, ± SD
K. pneumoniae (MDR00244) [6] = assay: as above; format: cell-based; conditions: 100 mg/mL in DMSO, 50 μL per well, ± SD
[7] = tested on: C. albicans100 (MDR00100); assay: as above; format: cell-based, Candida albicans; conditions: for Inhibition Zone (IZ): C. albicans100, 100 mg/mL in DMSO, 50 μL per well, ± SD
[8] = tested on: C. albicans200 (MDR00200); assay: as above; format: cell-based, Candida albicans; conditions: for Inhibition Zone (IZ): C. albicans200, 100 mg/mL in DMSO, 50 μL per well, ± SD
S. aureus (MDR00231) [9] = assay: MIC and MBC by broth microdilution; format: cell-based, Staphylococcus aureus
[10] = tested on: S. epidermidis (MDR00223); assay: MIC and MBC by broth microdilution; format: cell-based, Staphylococcus epidermidis
B. subtilis (MDR00423) [11] = assay: MIC and MBC by broth microdilution; format: cell-based
E. coli (MDR00501) [12] = assay: MIC and MBC by broth microdilution; format: cell-based
A. baumannii (MDR00521) [13] = assay: MIC and MBC by broth microdilution; format: cell-based; conditions: ratio in parentheses
K. pneumoniae (MDR00244) [14] = assay: MIC and MBC by broth microdilution; format: cell-based; conditions: ratio in parentheses
[15] = tested on: C. albicans100 (MDR00100); assay: MIC and MFC by broth microdilution; format: cell-based, Candida albicans
[16] = tested on: C. albicans200 (MDR00200); assay: MIC and MFC by broth microdilution; format: cell-based, Candida albicans
S. aureus biofilm = assay: Staphylococcus biofilm mass reduction; format: cell-based; conditions: at their MIC
S. epidermidis biofilm = assay: Staphylococcus biofilm mass reduction; format: cell-based; conditions: at their MIC
S. aureus [17] = assay: Single-step resistance selection; format: cell-based, Staphylococcus aureus; conditions: 4 × MIC, 48 h
S. epidermidis = assay: Single-step resistance selection; format: cell-based, Staphylococcus epidermidis; conditions: 4 × MIC, 48 h
B. subtilis = assay: Single-step resistance selection; format: cell-based; conditions: 4 × MIC, 48 h
E. coli [18] = assay: Single-step resistance selection; format: cell-based; conditions: 4 × MIC, 48 h
A. baumannii [19] = assay: Single-step resistance selection; format: cell-based; conditions: 4 × MIC, 48 h
K. pneumoniae = assay: Single-step resistance selection; format: cell-based; conditions: 4 × MIC, 48 h
C. albicans100 = assay: Single-step resistance selection; format: cell-based, Candida albicans; conditions: 4 × MIC, 48 h
C. albicans200 [20] = assay: Single-step resistance selection; format: cell-based, Candida albicans; conditions: 4 × MIC, 48 h
S. aureus [21] = assay: Checkerboard combination assay with Ciprofloxacin; format: cell-based, Staphylococcus aureus
E. coli [22] = assay: Checkerboard combination assay with Ciprofloxacin; format: cell-based
A. baumannii [23] = assay: Checkerboard combination assay with Ciprofloxacin; format: cell-based
C. albicans200 [24] = assay: Checkerboard combination assay with Ketoconazole; format: cell-based, Candida albicans
RBCs = assay: Hemolytic assay; format: cell-based; conditions: human RBCs; compounds 1.0 mg/mL; Triton X-100 0.1% v/v; 37 °C, 35 min
E. coli DNA gyrase = E. coli DNA gyrase (Escherichia coli, UniProt P0AES4+P0AES6); assay: DNA gyrase inhibition; format: biochemical
[25] = target: T1, dihydrofolate reductase (DHFR) (Homo sapiens, UniProt P00374); assay: DHFR inhibition; format: biochemical
T1 sequence (P00374 1-187): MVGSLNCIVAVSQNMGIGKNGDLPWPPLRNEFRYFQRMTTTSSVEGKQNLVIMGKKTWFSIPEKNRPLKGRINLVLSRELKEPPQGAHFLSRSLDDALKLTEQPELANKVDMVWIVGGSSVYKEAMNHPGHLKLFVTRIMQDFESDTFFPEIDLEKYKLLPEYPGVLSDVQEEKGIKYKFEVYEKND

[26] = In vitro cytotoxicity on normal cell line; format: cell-based, mouse; conditions: mouse, BNL normal liver cells
[27] = tested on: BNL: mouse normal liver cells; assay: In vitro cytotoxicity on normal cell line; format: cell-based
[28] = In vitro cytotoxicity on normal cell line; format: cell-based, green monkey; conditions: green monkey, Vero kidney cells
[29] = tested on: Vero: green monkey kidney; assay: In vitro cytotoxicity on normal cell line; format: cell-based
[30] = In vitro cytotoxicity on normal cell line; format: cell-based, rat; conditions: rat, H9C2 heart/myocardium cells
[31] = tested on: H9C2: rat heart/myocardium; assay: In vitro cytotoxicity on normal cell line; format: cell-based
Gram-negative bacteria = assay: MIC broth microdilution, Gram-negative panel; format: cell-based; conditions: Gram-negative bacteria used in this study
[32] = tested on: clinical pathogenic isolates; assay: Single-step resistance selection, whole panel; format: cell-based; conditions: 4 × MIC
[33] = Candida albicans, read-out: Inhibition Zone (IZ)

Chain of E. coli DNA gyrase (P0AES4 whole entry, one chain of several): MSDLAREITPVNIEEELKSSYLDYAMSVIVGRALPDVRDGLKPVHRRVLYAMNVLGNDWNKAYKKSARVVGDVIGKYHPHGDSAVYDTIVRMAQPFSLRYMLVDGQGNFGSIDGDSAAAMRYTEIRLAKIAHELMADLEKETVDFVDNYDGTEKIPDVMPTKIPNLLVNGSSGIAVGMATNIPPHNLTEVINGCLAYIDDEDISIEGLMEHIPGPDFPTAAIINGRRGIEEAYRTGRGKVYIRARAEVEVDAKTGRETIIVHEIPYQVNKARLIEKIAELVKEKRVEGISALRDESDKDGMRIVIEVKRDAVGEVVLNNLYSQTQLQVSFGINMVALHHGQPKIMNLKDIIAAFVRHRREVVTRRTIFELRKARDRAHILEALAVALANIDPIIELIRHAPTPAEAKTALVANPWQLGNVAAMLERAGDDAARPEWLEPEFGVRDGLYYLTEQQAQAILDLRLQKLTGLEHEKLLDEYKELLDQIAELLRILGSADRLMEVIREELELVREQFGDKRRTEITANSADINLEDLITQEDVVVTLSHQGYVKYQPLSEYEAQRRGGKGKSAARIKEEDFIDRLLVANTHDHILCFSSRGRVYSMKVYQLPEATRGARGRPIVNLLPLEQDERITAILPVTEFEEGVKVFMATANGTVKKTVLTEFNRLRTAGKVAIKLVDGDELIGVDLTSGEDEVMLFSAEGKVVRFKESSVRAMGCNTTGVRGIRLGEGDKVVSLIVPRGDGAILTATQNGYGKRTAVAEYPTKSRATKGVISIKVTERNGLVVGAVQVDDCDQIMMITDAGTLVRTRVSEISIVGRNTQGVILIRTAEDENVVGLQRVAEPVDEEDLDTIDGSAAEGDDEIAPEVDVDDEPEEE

Structure (SMILES): N#CC=c1[nH]c(=O)c(=Cc2cn(-c3ccccc3)nc2-c2ccccc2)s1 [Compound 3a, 2-(5-((1,3-Diphenyl-1H-pyrazol-4-yl)methylene)-4-oxothiazolidin-2-ylidene)acetonitrile]
- Inhibition Zone (IZ) (S. aureus (MDR00231) [1]): -ve
- Inhibition Zone (IZ) [2]: -ve
- Inhibition Zone (IZ) (B. subtilis (MDR00423) [3]): -ve
- Inhibition Zone (IZ) (E. coli (MDR00501) [4]): -ve
- Inhibition Zone (IZ) (A. baumannii (MDR00521) [5]): -ve
- Inhibition Zone (IZ) (K. pneumoniae (MDR00244) [6]): -ve
- Inhibition Zone (IZ) [7]: -ve
- Inhibition Zone (IZ) [8]: -ve

Structure (SMILES): Cc1c(NC(=O)CC2=NC(=O)CS2)c(=O)n(-c2ccccc2)n1C [Compound 10, N-(1,5-Dimethyl-3-oxo-2-phenyl-2,3-dihydro-1H-pyrazol-4-yl)-2-(4-oxo-4,5-dihydrothiazol-2-yl)acetamide]
- zone of inhibition at 100000 µg/mL (S. aureus (MDR00231) [1]; Staphylococcus aureus, read-out: Inhibition Zone (IZ)): 27 ± 0.21 mm
- zone of inhibition at 100000 µg/mL ([2]; Staphylococcus epidermidis, read-out: Inhibition Zone (IZ)): 26 ± 0.4 mm
- zone of inhibition at 100000 µg/mL (E. coli (MDR00501) [4]; Escherichia coli, read-out: Inhibition Zone (IZ)): 25 ± 0.22 mm
- zone of inhibition at 100000 µg/mL [7, 33]: 28 ± 0.88 mm
- zone of inhibition at 100000 µg/mL [8, 33]: 30 ± 0.55 mm
- MBC/MIC (S. aureus (MDR00231) [9]; S. aureus, ratio in parentheses): 1
- MIC (S. aureus (MDR00231) [9]; Staphylococcus aureus, read-out: MIC (mean ± SEM), S. aureus, broth microdilution): 0.95 ± 0.2 µg/mL (≈ 2.76 µM)
- MBC/MIC ([10]; S. epidermidis, ratio in parentheses): 1
- MIC ([10]; Staphylococcus epidermidis, read-out: MIC (mean ± SEM), S. epidermidis, broth microdilution): 0.97 ± 0.4 µg/mL (≈ 2.82 µM)
- MBC/MIC (B. subtilis (MDR00423) [11]; B. subtilis, ratio in parentheses): 2
- MIC (B. subtilis (MDR00423) [11]; Bacillus subtilis, read-out: MIC (mean ± SEM), B. subtilis, broth microdilution): 0.98 ± 0.1 µg/mL (≈ 2.85 µM)
- MBC/MIC (E. coli (MDR00501) [12]; E. coli, ratio in parentheses): 1
- MIC (E. coli (MDR00501) [12]; Escherichia coli, read-out: MIC (mean ± SEM), E. coli, broth microdilution): 0.46 ± 0.4 µg/mL (≈ 1.34 µM)
- MBC/MIC (A. baumannii (MDR00521) [13]): 0.5
- MBC/MIC (K. pneumoniae (MDR00244) [14]): 1
- MFC/MIC ([15]; C. albicans100, ratio in parentheses): 2
- MIC ([15]; Candida albicans, read-out: MIC (mean ± SEM), C. albicans100, broth microdilution): 0.95 ± 0.3 µg/mL (≈ 2.76 µM)
- MFC/MIC ([16]; C. albicans200, ratio in parentheses): 1
- MIC ([16]; Candida albicans, read-out: MIC (mean ± SEM), C. albicans200, broth microdilution): 0.47 ± 0.1 µg/mL (≈ 1.36 µM)
- reduction of biofilm formation (S. aureus biofilm): 55.6%
- reduction of biofilm formation (S. epidermidis biofilm): 53.3%
- Single-step resistance frequency (mutation frequency) (S. aureus [17]): 2.41 × 10^–8
- Single-step resistance frequency (mutation frequency) (S. epidermidis): 3.00 × 10^–8
- Single-step resistance frequency (mutation frequency) (B. subtilis): 3.50 × 10^–8
- Single-step resistance frequency (mutation frequency) (E. coli [18]): 2.60 × 10^–8
- Single-step resistance frequency (mutation frequency) (A. baumannii [19]): 2.53 × 10^–8
- Single-step resistance frequency (mutation frequency) (K. pneumoniae): 2.61 × 10^–8
- Single-step resistance frequency (mutation frequency) (C. albicans100): 3.33 × 10^–8
- Single-step resistance frequency (mutation frequency) (C. albicans200 [20]): 3.50 × 10^–8
- combination effect (S. aureus [21]): S (S: synergism)
- fractional inhibitory concentration index (FICI) (S. aureus [21]): 0.5
- combination effect (E. coli [22]): S (S: synergism)
- fractional inhibitory concentration index (FICI) (E. coli [22]): 0.5
- combination effect (A. baumannii [23]): S (S: synergism)
- fractional inhibitory concentration index (FICI) (A. baumannii [23]): 0.5
- combination effect (C. albicans200 [24]): S (S: synergism)
- fractional inhibitory concentration index (FICI) (C. albicans200 [24]): 0.5
- %lysis of RBCs (RBCs): 11.66% and 11.66 ± 0.231%
- IC50 (E. coli DNA gyrase): 28.88 ± 0.12 µM
- IC50 [25]: 1420 ± 230 nM
- IC50 at 72 h [26]: 98.9 ± 1.54 µM
- Selectivity index against DHFR ([27]; IC50 of BNL / IC50 of DHFR): 69.64
- Selectivity index against DNA gyrase ([27]; IC50 of BNL / IC50 of DNA gyrase): 3.42
- IC50 at 72 h [28]: 70.06 ± 0.34 µM
- Selectivity index against DHFR ([29]; IC50 of Vero / IC50 of DHFR): 49.33
- Selectivity index against DNA gyrase ([29]; IC50 of Vero / IC50 of DNA gyrase): 2.42
- IC50 at 72 h [30]: 99.8 ± 1.84 µM
- Selectivity index against DHFR ([31]; IC50 of H9C2 / IC50 of DHFR): 70.26
- Selectivity index against DNA gyrase ([31]; IC50 of H9C2 / IC50 of DNA gyrase): 3.45
- MIC, range over panel (Gram-negative bacteria): 0.43 to 0.98 µg/mL
- mutation frequency, range over panel [32]: 2.41 × 10^–8 to 3.50 × 10^–8

Structure (SMILES): Cc1c(NN=C2SC3=C(C#N)C(c4ccccc4)C(C#N)=C(N)N3C2=O)c(=O)n(-c2ccccc2)n1C (stereo not drawn) [Compound 16a, 5-Amino-2-(2-(1,5-dimethyl-3-oxo-2-phenyl-2,3-dihydro-1H-pyrazol-4-yl)hydrazono)-3-oxo-7-phenyl-2,3-dihydro-7H-thiazolo[3,2-a]pyridine-6,8-dicarbonitrile]
- Inhibition Zone (IZ) (S. aureus (MDR00231) [1]): -ve
- Inhibition Zone (IZ) [2]: -ve
- Inhibition Zone (IZ) (B. subtilis (MDR00423) [3]): -ve
- Inhibition Zone (IZ) (E. coli (MDR00501) [4]): -ve
- Inhibition Zone (IZ) (A. baumannii (MDR00521) [5]): -ve
- Inhibition Zone (IZ) (K. pneumoniae (MDR00244) [6]): -ve
- Inhibition Zone (IZ) [7]: -ve
- Inhibition Zone (IZ) [8]: -ve

Structure (SMILES): Cc1c(NN=C2SC3=C(C#N)C(c4ccc(Cl)cc4)C(C#N)=C(N)N3C2=O)c(=O)n(-c2ccccc2)n1C (stereo not drawn) [Compound 16b, 5-Amino-7-(4-chlorophenyl)-2-(2-(1,5-dimethyl-3-oxo-2-phenyl-2,3-dihydro-1H-pyrazol-4-yl)hydrazono)-3-oxo-2,3-dihydro-7H-thiazolo[3,2-a]pyridine-6,8-dicarbonitrile]
- Inhibition Zone (IZ) (S. aureus (MDR00231) [1]): -ve
- Inhibition Zone (IZ) [2]: -ve
- Inhibition Zone (IZ) (B. subtilis (MDR00423) [3]): -ve
- Inhibition Zone (IZ) (E. coli (MDR00501) [4]): -ve
- Inhibition Zone (IZ) (A. baumannii (MDR00521) [5]): -ve
- Inhibition Zone (IZ) (K. pneumoniae (MDR00244) [6]): -ve
- Inhibition Zone (IZ) [7]: -ve
- Inhibition Zone (IZ) [8]: -ve
